Measurements taken from PubChem BioAssay AID493003 (Sanford-Burnham Center for Chemical Genomics, 2010).
The source made the active and inactive calls. No rule for the calls is given here.

System: S. cerevisiae tim10-1 mutant growth, luminescence
Assay: tim10-1 yeast growth inhibition potency – luminescence, S. cerevisiae, uHTS hits, dose response (AID 493003);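 also: yeast growth measured after about 22 hours at 25 °C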

SMILES	IC50
CC(C)(C)C(=O)Nc1nnc(SCc2ccc(F)cc2)s1	42.2 µM
CCCCOc1cccc(-c2cc(C(=O)NNC(=S)NCC)c3ccccc3n2)c1	89.3 µM
Nc1cc(Cl)ccc1Oc1ccc2ccccc2c1	23.1 µM
COc1ccccc1C/C(N)=N/OC(=O)COc1ccccc1C	38 µM
CCn1c(CSc2nc3ccccc3s2)n[nH]c1=S	49.4 µM
COc1ccc2[nH]c3c(=O)n4c(nc3c2c1)SCC4	79.9 µM
Clc1ccc(Cl)c2sc(N3CCCC3)nc12	35.7 µM
Cc1oc2c(Cl)c(Cl)c(O)c(CN(C)C)c2c1C(=O)c1ccc(Cl)cc1	18.6 µM
CN(c1ccccc1)C1CCCCC1NS(=O)(=O)c1ccc(Cl)cc1 (centres undefined)	65.4 µM
COC(=O)N1C(=O)[C@@](c2ccccc2)(C2CCCCC2)N1C(=O)OC	61.7 µM
Cc1cc(N2C3CCC2CC(O)(c2ccc(F)cc2)C3)nc(-c2ccccc2)n1 (centres undefined)	25.4 µM
CCC1CCCCN1c1nc(-c2ccncc2)nc2ccccc12 (centres undefined)	34.3 µM
COc1ccc(-c2[nH]ncc2N=Nc2ccccc2)cc1	16.7 µM
Cc1ccc(F)c([C@H]2C3C=CCC(c4ccccc4)C3C(=O)N2Cc2ccccc2)c1 (some centres undefined)	15.2 µM
O=c1c2ccccc2nc(/C=C/c2ccc([N+](=O)[O-])o2)n1CCCO	4.53 µM
CN1/C(=C\C(=O)Nc2ccc(Br)cc2)C(C)(C)c2ccccc21	38.7 µM
COc1ccc(-c2sc3cc4c(cc3c2C#CC2(N)CCCCC2)OCO4)cc1	12.5 µM
CN(C)CCCN(C(=O)c1ccc(S(=O)(=O)N2CCc3ccccc3C2)cc1)c1nc2c(F)cc(F)cc2s1	35.2 µM
CCOC(=O)n1c(=O)n(Cc2ccccc2Cl)c2ccccc21	27.6 µM
COc1ccc(-c2cc(C3CC3)nc3sc(C#N)c(N)c23)cc1	12.7 µM
CCC(Oc1ccccc1)C(=O)Nc1ncc([N+](=O)[O-])s1 (centres undefined)	18.3 µM
COC(=O)c1ccc(N2C(=O)CC(N(C)CCc3ccc(OC)c(OC)c3)C2=O)cc1 (centres undefined)	18.6 µM
Cc1nn(C)c(C(=O)NC(=S)Nc2ccc([N+](=O)[O-])cc2)c1Cl	74.5 µM
O=C(C1CCCN(S(=O)(=O)c2cccc3nsnc23)C1)N1CCc2ccccc21 (centres undefined)	81.1 µM

SMILES	IC50
COc1ccc(/C(N)=N/OC(=O)c2cccs2)cc1OC	42.8 µM
Cc1cc(N)n2ncc(-c3ccc(F)cc3)c2n1	36 µM
Cc1c(C(=O)NC2CCCc3ccccc32)oc2ccccc12 (centres undefined)	20.2 µM
CCCN1C(=O)/C(=N\OCC(=O)Nc2ccc(C(C)C)cc2)c2ccccc21	60.9 µM
CCN(CC)c1ncnc2c1ncn2Cc1c(Cl)cccc1Cl	45.9 µM
Cc1nn2c3ccccc3nc2c2ccccc12	77.1 µM
CCCc1cc(NCC2CCCO2)n2c(nc3ccccc32)c1C#N (centres undefined)	26.7 µM
CCOC(=O)c1ccc(NC(=O)CC2OCCN(CC)C2=O)cc1 (centres undefined)	9.9 µM
COc1ccc2sc(N(CCCN(C)C)C(=O)c3ccc(S(=O)(=O)N4CCCc5ccccc54)cc3)nc2c1	16.4 µM
N/C(=N\OC(=O)c1cccc(Cn2cc(C(F)(F)F)ccc2=O)c1)c1ccccc1	23.3 µM
CC(C)C1O/C(=N/C(=O)Nc2ccc(Cl)c(Cl)c2)NC1=O (centres undefined)	32.3 µM
O=[N+]([O-])c1ccccc1N/N=C/c1c[nH]c2ccccc12	13.8 µM
CCOC(=O)N1CCN(C(=O)c2ccc(CSc3ccc(Cl)cc3)cc2)CC1	74.1 µM
Cc1cccc(C2=NNC(=O)C(c3ccc(Cl)cc3)C2)c1 (centres undefined)	34 µM
CC/C(=N\Nc1ccccc1[N+](=O)[O-])c1ccc(O)cc1	20 µM
COc1ccccc1-c1cc2ccccc2[nH]1	46.9 µM
CC(CC(=O)Nc1ncc([N+](=O)[O-])s1)c1ccccc1 (centres undefined)	18.5 µM
Cc1c(C(=O)N2CCN(c3ccc(C(F)(F)F)cn3)CC2)oc2ccccc12	41.6 µM
OC(COc1ccc2ccccc2c1Br)Cn1cnc(-c2ccccc2)c1 (centres undefined)	18.1 µM
O=C(c1ccco1)N1CCN(c2ncnc3scc(-c4ccccc4)c23)CC1	17.7 µM
COc1ccc2cc3cc(C(=O)NCCN4CCc5ccccc5C4)oc3nc2c1	0.69 µM
COc1cc(C(=O)Nc2ccc(Cl)c(C(F)(F)F)c2)cc(OC)c1OC	16.8 µM
Cc1cc2c(cc1C)CSC(c1ccccc1O)SC2	20.7 µM
CC(C)C(=O)Nc1ccc(-c2nc3ccccc3c(=O)o2)cc1	36.5 µM

SMILES	IC50
COc1ccc(N2C(=O)CC(Sc3nc4ccccc4s3)C2=O)cc1 (centres undefined)	32.5 µM
Cc1cc(N(CCO)CCO)ccc1N=Nc1cc(F)ccc1F	26.1 µM
CCOC(=O)/C=C/C(=O)OCC(=O)Nc1ccc([N+](=O)[O-])cc1	8.19 µM
Cc1sc2ncnc(Oc3ccc(-n4ccnc4)cc3)c2c1C	46 µM
S=C(NN=C1C2CC3CC(C2)CC1C3)Nc1ccccc1	19.4 µM
C/C(=N\NC(=O)c1cc(-c2cccs2)nc2ccccc12)c1ccccn1	28.7 µM
CC1=NN(c2nc(-c3ccc(Cl)cc3)cs2)C(=O)C1	33.5 µM
CC(C)CN(CC(C)C)C(=S)Nc1ccc(Cl)cc1	15.6 µM
COc1ccc(C(CCNC(C)c2ccccc2)c2ccc(F)cc2)cc1 (centres undefined)	20.6 µM
CC(CNC(=O)COc1ccccc1)OC(=O)Nc1ccc(Cl)c(Cl)c1 (centres undefined)	20.2 µM
Cc1cccc(Nc2ncccc2C(=O)NCc2cccs2)c1C	53.3 µM
CCc1ccc2nc3nc(C)cc(C)c3c(N)c2c1	25.1 µM
N/C(=N\OC(=O)CCCOc1ccc(Cl)cc1Cl)c1ccncc1	47.6 µM
COC(C/C=C/C(=O)COCc1ccccc1)OC	37.2 µM
CCn1nc(C)c(C(=O)Nc2cc(Oc3ccc(Cl)cc3)cc([N+](=O)[O-])c2)c1C	43.1 µM
CCOC(=O)c1c(-c2ccc(C)o2)csc1NC(=S)NC(=O)N(C)C	19.5 µM
Cc1nonc1C(=O)N/N=C/c1ccc(O)cc1	30.3 µM
COc1ccc(Br)cc1[C@H]1[C@@H]2C=CCC[C@@]2(C)C(=O)N1Cc1ccccc1	12.1 µM
Cc1nc2ccc(Nc3nc4cc(S(=O)(=O)N5CCOCC5)ccc4o3)cc2s1	19.4 µM
S=C(Nc1ccc(Cl)cc1)c1nc2ccccc2[nH]1	23.7 µM
CC(C)(C)c1ccc(-c2n[nH]c(=S)n2Cc2ccccc2)cc1	33.1 µM
O=C(Nc1ccccc1Cl)C(Cl)C(=O)c1ccccc1 (centres undefined)	70.1 µM
O=C(Nc1cccc(N2C(=O)C=CC2=O)c1)c1cccs1	4.4 µM
N/C(Cc1ccc(Cl)cc1)=N\OC(=O)c1ccc2ccccc2c1	0.25 µM

SMILES	IC50
O=C(/C=C/c1cccs1)c1cc(Br)ccc1OC(=O)N1CCOCC1	36.4 µM
Cc1cc(Cl)ccc1OCC(=O)Nc1nc(-c2cccs2)cs1	> 100 µM (inactive)
CN(C1CCCCC1)S(=O)(=O)c1ccc(NC(=O)c2ccco2)cc1	38 µM
Cc1sc(NC(=O)c2ccco2)c(C(c2cccnc2)N2CCCC2)c1C (centres undefined)	17.2 µM
O=C(/C=C/c1ccc2c(c1)OCCCO2)c1ccccc1O	12.2 µM
COc1cc(/C=C/c2ccc3cccc(O)c3n2)c(Br)cc1O	15.4 µM
CSc1ccccc1OCc1cc(C(=O)N2CCC(Oc3cccnc3)CC2)no1	39.9 µM
Cc1ccc(NC(=O)c2cc(S(=O)(=O)NCCC3=CCCCC3)ccc2F)cc1	10.8 µM
O=C(N/N=C/c1ccc[nH]1)c1cc(-c2ccc(Cl)cc2)nc2ccccc12	10.1 µM
O=C(Nc1cccc(C(=O)N2CCN(c3cccc(Cl)c3)CC2)c1)c1ccccc1	35.2 µM
COc1cccc(-c2nn(C)c3sc(C(=O)N4CCN(c5ccccn5)CC4)cc23)c1	46.2 µM
COc1ccc(/C=N/n2c(=S)n(C)c3ccccc32)cc1OC	36.1 µM
N/C(=N\OC(=O)c1ccc(Cl)cc1)c1ccc(Cl)cc1	3.34 µM
COc1cc(/C=N/O)ccc1Oc1ccc([N+](=O)[O-])cc1[N+](=O)[O-]	24.4 µM
Cn1c(CSc2nnc(SCc3ccccc3)s2)nc2ccccc21	19.6 µM
Cc1cc(C)n(-c2nc(-n3nc(C)cc3C)c3c4c(sc3n2)COC(C)(C)C4)n1	19.1 µM
O=C(Nc1cccc(C(F)(F)F)c1)c1cccnc1NCCc1ccccc1	46.6 µM
O=C(Nc1ccon1)c1cc2c(s1)CCCCCC2	39.2 µM
Cc1ccc(OCC(=O)O/N=C(\N)Cc2ccc([N+](=O)[O-])cc2)cc1C	25.1 µM
O=C(O/N=C(/c1ccccc1)c1ccncc1)c1ccccc1[N+](=O)[O-]	29 µM
O=C(ON=C1CCN(S(=O)(=O)c2ccccc2)CC1)c1ccc(F)cc1	26.4 µM
CC(C)Nc1nnc(Sc2ccc(Cl)cc2[N+](=O)[O-])s1	8.34 µM
